How the values were obtained:
serotonin transporter = target: T1, serotonin transporter (Rattus norvegicus, UniProt P31652); assay: 3H-paroxetine binding to rat frontal cortical membranes, affinity for the serotonin transporter; settings: 3H-paroxetine 0.1 nM, male Sprague Dawley rat frontal cortical membranes; read-out: 5HT Uptake r5HT-T Ki (nM) (Example 18)
T1 construct: frontal cortical membranes prepared from male Sprague Dawley rats; from tissue; host or cells: rat frontal cortex membranes (male Sprague Dawley)
T1 sequence (P31652 whole entry): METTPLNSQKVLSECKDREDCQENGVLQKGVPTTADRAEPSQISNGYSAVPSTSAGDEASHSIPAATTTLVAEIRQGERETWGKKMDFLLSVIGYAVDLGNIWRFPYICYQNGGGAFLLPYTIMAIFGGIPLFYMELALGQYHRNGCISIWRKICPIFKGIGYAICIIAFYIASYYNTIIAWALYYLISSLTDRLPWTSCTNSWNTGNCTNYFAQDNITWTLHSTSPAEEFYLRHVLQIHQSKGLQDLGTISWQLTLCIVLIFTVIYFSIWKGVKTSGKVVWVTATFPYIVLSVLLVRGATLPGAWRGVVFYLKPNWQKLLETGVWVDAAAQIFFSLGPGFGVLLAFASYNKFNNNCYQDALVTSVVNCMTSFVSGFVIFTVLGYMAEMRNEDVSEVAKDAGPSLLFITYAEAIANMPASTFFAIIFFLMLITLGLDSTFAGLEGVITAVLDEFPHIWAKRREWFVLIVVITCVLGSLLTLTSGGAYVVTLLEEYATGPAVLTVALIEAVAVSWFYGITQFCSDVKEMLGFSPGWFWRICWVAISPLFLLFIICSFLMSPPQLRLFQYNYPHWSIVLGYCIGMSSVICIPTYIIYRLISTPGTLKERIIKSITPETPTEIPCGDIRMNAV
Protocol: A protocol similar to that used by Cheetham et al. (Neuropharmacol. 32:737-743, 1993) was used to determine the affinity of compounds for the serotonin transporter (i.e., by determining the relative ability of a compound to displace ^3H-paroxetine from male rat frontal cortical membranes). Briefly, frontal cortical membranes prepared from male Sprague Dawley rats were incubated with ^3H-paroxetine (0.1 nM) for 60 minutes at 25° C. All tubes also contained either vehicle, test compound (one to eight concentrations), or a saturating concentration of fluoxetine (10 μM) to define […]. All reactions were terminated by the addition of ice cold Tris buffer followed by rapid filtration using a Tom Tech filtration device to separate bound from free ^3H-paroxetine. Bound radioactivity was quantitated using a Wallac 1205 Beta Plate® counter. Nonlinear regression analysis was used to determine IC50 values which were converted to Ki values using the method of Cheng and Prusoff (Biochem. Pharmacol. 22: 3099-3108, 1973); […].
This affinity translates to the blockade of 5-HT uptake, i.e., the ability of a compound increase synaptic 5-HT levels and to act like an SSRI.

Human 5-HT1A Receptor [1] = target: T2, Human 5-HT1A Receptor (Homo sapiens, UniProt P08908); assay: 8-OH-DPAT binding, human 5-HT1A receptor cell line (displacement of [3H]-OHDPAT, stably transfected CHO cells); settings: [3H]-OHDPAT 1.5 nM, read-out: h5HT1A Affinity Ki (nM) (Example 17)
T2 construct: expressed in transfected cells; host or cells: CHO cells (Chinese hamster ovary), stably transfected
T2 sequence (P08908 1-422): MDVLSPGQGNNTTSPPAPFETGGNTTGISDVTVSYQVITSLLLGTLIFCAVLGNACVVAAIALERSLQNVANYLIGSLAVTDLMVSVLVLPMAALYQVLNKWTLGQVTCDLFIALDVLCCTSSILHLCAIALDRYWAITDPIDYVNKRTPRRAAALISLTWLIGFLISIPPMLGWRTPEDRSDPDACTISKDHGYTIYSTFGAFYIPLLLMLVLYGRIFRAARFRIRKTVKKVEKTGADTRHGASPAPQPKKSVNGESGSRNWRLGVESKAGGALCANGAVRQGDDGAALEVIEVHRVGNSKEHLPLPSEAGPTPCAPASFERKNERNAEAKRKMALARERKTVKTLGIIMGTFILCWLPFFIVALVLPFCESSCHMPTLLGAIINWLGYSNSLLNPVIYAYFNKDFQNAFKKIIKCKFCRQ
Protocol: Affinity for the serotonin 5-HT1A receptor was established by testing each compound's ability to displace [^3H]-OHDPAT (dipropylaminotetralin) from the 5-HT1A serotonin receptor following a modification of the procedure of Hall et al., J. Neurochem. 44:1685-1696 (1985). Stably transfected Chinese hamster ovary (CHO) cells were plated and grown in Dulbecco's Modified Eagle's Medium (DMEM) containing 10% heat inactivated fetal bovine serum (FBS) and non-essential amino acids. Cells were scraped off the plate, transferred to centrifuge tubes, and washed twice by centrifugation (2000 rpm for 10 minutes at 4° C.) in buffer (50 mM Tris, pH 7.5). The resulting pellets were aliquoted and stored at −80° C. On the day of assay, the cells were thawed on ice, and re-suspended in buffer. The binding assay was performed in a 96-well microtiter plate in a total volume of about 250 μL. Non-specific binding was determined in the presence of 10 μM 5-HT; the final radio ligand concentration was 1.5 nM. Following a 30 minute incubation at room temperature, the reaction was terminated by the addition of ice cold buffer and rapid filtration through a GF/B filter presoaked for 30 minutes in 0.5% polyethyleneimine (PEI). Compounds were initially tested in a single point assay to determine percent inhibition at 1 μM, 0.1 μM, and 0.01 μM. Subsequently, Ki values were determined for compounds defined to be active. Percent inhibition Ki was determined by RFComp (Lundon Software, Chagrin Falls, Ohio), with serotonin and 8-OH-DPAT as the reference compounds.
High affinity for the receptor is evidence of a compound's ability to directly modulate activity at the 5-HT1A receptor.

Human 5-HT1A Receptor [2] = target: T2, Human 5-HT1A Receptor; assay: cAMP radioimmunoassay (RIA) in human 5-HT1A receptor cell line, inhibition of forskolin stimulated cAMP; format: cell-based; settings: forskolin (1 μM) stimulated cAMP, stably transfected CHO cells; read-out: h5HT1A cAMP EC50 (nM) (Example 19)
Protocol: Certain effects of 5-HT (e.g., certain effects mediated by the interaction of 5-HT with the 5-HT1A receptor) are mediated by cAMP. To test the ability of compounds described herein to modulate cAMP, a radioimmunoassay (RIA) method was used. Briefly, stably transfected CHO cells were grown in DMEM containing 10% heat inactivated FBS and non-essential amino acids. The cells were plated at a density of 10^6 cells per well in a 96-well plate and incubated for 2 days in a CO2 incubator. On the second day, the medium was replaced with 0.1 ml Krebs and incubated 15 minutes at 37° C. The medium was then replaced with Krebs buffer containing 500 μM isobutylmethylxanthine (IBMX) and incubated for approximately 5 minutes at 37° C. Wells were treated with forskolin (1 μM final concentration) followed immediately by test compound (0.1 and 1 μM for the initial screen) and incubated for an additional 10 minutes at 37° C. The reaction was terminated by removal of the medium and the addition of 0.5 ml ice cold assay buffer (supplied in the RIA kit). Plates were stored at −20° C. prior to assessment of cAMP formation by RIA. The cAMP kit was obtained from Amersham (Piscataway, N.J.) and the RIA was performed as per the kit instructions. In the initial screen, percent inhibition of forskolin stimulated cAMP was measured. […] These compounds behaved as either full agonists or partial agonists. 5-HT, BMY 7378, buspirone, and 8-OH-DPAT were used as reference compounds.
All compounds tested inhibited the forskolin-stimulated increase in […].

Human 5-HT Transporter = target: T3, Human 5-HT Transporter (Homo sapiens, UniProt P31645); assay: Inhibition of 3H-5-HT uptake by Jar cells possessing the human 5-HT transporter; format: cell-based; settings: Jar cells treated with staurosporine, read-out: 5HT Uptake h5HT-T IC50 (nM) (Example 20)
T3 construct: endogenous in cells; host or cells: Jar cells (human carcinoma cell line), treated with staurosporine
T3 sequence (P31645 whole entry): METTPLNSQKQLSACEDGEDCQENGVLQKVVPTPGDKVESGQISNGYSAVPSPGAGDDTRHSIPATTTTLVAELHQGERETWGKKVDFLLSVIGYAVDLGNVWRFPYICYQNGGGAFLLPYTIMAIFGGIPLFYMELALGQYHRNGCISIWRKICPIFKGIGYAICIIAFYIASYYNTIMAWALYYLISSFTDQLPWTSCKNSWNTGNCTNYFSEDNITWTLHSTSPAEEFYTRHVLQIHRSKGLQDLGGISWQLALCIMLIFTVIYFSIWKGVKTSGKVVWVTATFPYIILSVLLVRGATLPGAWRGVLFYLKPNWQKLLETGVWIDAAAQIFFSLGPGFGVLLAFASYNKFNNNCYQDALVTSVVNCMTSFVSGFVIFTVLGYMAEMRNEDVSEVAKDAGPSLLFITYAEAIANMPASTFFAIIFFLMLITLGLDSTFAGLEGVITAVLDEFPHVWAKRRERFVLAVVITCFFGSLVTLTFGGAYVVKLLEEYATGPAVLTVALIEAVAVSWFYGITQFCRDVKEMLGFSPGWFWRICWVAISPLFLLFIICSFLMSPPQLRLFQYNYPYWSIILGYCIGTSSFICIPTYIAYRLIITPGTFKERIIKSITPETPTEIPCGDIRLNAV
Protocol: [Staurosporine greatly increases the expression of the 5-HT-Transporter.] On the day of assay, vehicle, excess of fluoxetine, or test compound was added to various wells on the plate. ^3H-5-HT was then aliquoted into all wells and the samples were incubated at 37° C. for 5 minutes. The wells were then washed with ice cold 50 mM Tris HCl (pH 7.4) buffer and aspirated to remove free ^3H-5-HT. 25 μL 0.25 M NaOH was then added to each well to lyse the cells and 75 μL scintillation cocktail (Microscint™ 20) was added prior to quantitation on a Packard TopCount® machine. Tubes with vehicle represent total possible uptake, radioactivity counted in tubes with excess fluoxetine represent nonspecific binding/uptake and were subtracted from the total possible uptake to give total possible specific uptake. This nonspecific binding (usual low in number) was then subtracted from the counts obtained in wells with various test compounds (or different concentrations of a test compound) resulting in uptake in the presence of drug. Specific uptake was then expressed as a percent of control values and was analyzed using nonlinear regression analysis (Prizm) to determine IC50 values. If the compound was active in inhibiting 5-HT uptake, its counts will be close to that obtained with fluoxetine.
This blockade, in vivo, would be expected to result in an increase in extracellular 5-HT concentrations.

SMILES	Ki (serotonin transporter) [nM]	Ki (Human 5-HT1A Receptor [1]) [nM]	EC50 (Human 5-HT1A Receptor [2]) [nM]	IC50 (Human 5-HT Transporter) [nM]
Cc1ccc2c3c(ccc2n1)OC[C@H](CNCCCN1CCc2cc(F)ccc21)O3 [Example 2, 3-(5-fluoro-2,3-dihydro-1H-indol-1-yl)-N-{[(2S)-8-methyl-2,3-dihydro[1,4]dioxino[2,3-f]quinolin-2-yl]methyl}propan-1-amine]	10.2	0.6	3.76	
Cc1ccc2c3c(ccc2n1)OC[C@H](CNCCCCN1CCCc2ccccc21)O3 [Example 15, 4-(3,4-dihydroquinolin-1(2H)-yl)-N-{[(2S)-8-methyl-2,3-dihydro[1,4]dioxino[2,3-f]quinolin-2-yl]methyl}butan-1-amine]	11.8	0.66	9.25	438
Cc1ccc2c3c(ccc2n1)OC[C@H](CNCCCN1CCOc2ccc(F)cc21)O3 [Example 11, 3-(6-fluoro-2,3-dihydro-4H-1,4-benzoxazin-4-yl)-N-{[(2S)-8-methyl-2,3-dihydro[1,4]dioxino[2,3-f]quinolin-2-yl]methyl}propan-1-amine]	14.7	2.77	1.43	4710
Cc1ccc2c3c(ccc2n1)OC[C@H](CNCCCN1CCCc2cc(F)c(F)cc21)O3 [Example 7, 3-(6,7-difluoro-3,4-dihydroquinolin-1(2H)-yl)-N-{[(2S)-8-methyl-2,3-dihydro[1,4]dioxino[2,3-f]quinolin-2-yl]methyl}propan-1-amine]	12.3	3.73	1.63	77
Cc1ccc2c3c(ccc2n1)OC[C@H](CNCCCCN1CCc2ccc(F)cc21)O3 [Example 14, 4-(6-fluoro-2,3-dihydro-1H-indol-1-yl)-N-{[(2S)-8-methyl-2,3-dihydro[1,4]dioxino[2,3-f]quinolin-2-yl]methyl}butan-1-amine]	3.3	0.19	1.66	161
Cc1ccc2c3c(ccc2n1)OC[C@H](CNCCCN1CCc2ccc(F)cc21)O3 [Example 3, 3-(6-fluoro-2,3-dihydro-1H-indol-1-yl)-N-{[(2S)-8-methyl-2,3-dihydro[1,4]dioxino[2,3-f]quinolin-2-yl]methyl}propan-1-amine]	2.8	0.35	1.88	107
Cc1ccc2c3c(ccc2n1)OC[C@H](CNCCCN1CCCc2ccc(F)cc21)O3 [Example 4, 3-(7-fluoro-3,4-dihydroquinolin-1(2H)-yl)-N-{[(2S)-8-methyl-2,3-dihydro[1,4]dioxino[2,3-f]quinolin-2-yl]methyl}propan-1-amine]	7.7	0.27	1.57	32.9
Cc1ccc2c3c(ccc2n1)OC[C@H](CNCCCN1CCCc2ccccc21)O3 [Example 1, 3-(3,4-dihydroquinolin-1(2H)-yl)-N-{[(2S)-8-methyl-2,3-dihydro[1,4]dioxino[2,3-f]quinolin-2-yl]methyl}propan-1-amine]	13	2.45	1.58	150
Cc1ccc2c3c(ccc2n1)OC[C@H](CNCCCN1CCCc2cc(F)ccc21)O3 [Example 8, 3-(6-fluoro-3,4-dihydroquinolin-1(2H)-yl)-N-{[(2S)-8-methyl-2,3-dihydro[1,4]dioxino[2,3-f]quinolin-2-yl]methyl}propan-1-amine]	7.2	1.44	1.48	76.9
Cc1ccc2c3c(ccc2n1)OC[C@H](CNCCCN1CCCc2cc(F)c(Cl)cc21)O3 [Example 10, 3-(7-chloro-6-fluoro-3,4-dihydroquinolin-1(2H)-yl)-N-{[(2S)-8-methyl-2,3-dihydro[1,4]dioxino[2,3-f]quinolin-2-yl]methyl}propan-1-amine]	116	3.22	1.95	
Cc1ccc2c3c(ccc2n1)OC[C@H](CNCCCN1CCCc2cc(F)cc(F)c21)O3 [Example 9, 3-(6,8-difluoro-3,4-dihydroquinolin-1(2H)-yl)-N-{[(2S)-8-methyl-2,3-dihydro[1,4]dioxino[2,3-f]quinolin-2-yl]methyl}propan-1-amine]	27	1.41	1.18	
Cc1ccc2c3c(ccc2n1)OC[C@H](CNCCCN1CCOc2ccccc21)O3 [Example 6, 3-(2,3-dihydro-4H-1,4-benzoxazin-4-yl)-N-{[(2S)-8-methyl-2,3-dihydro[1,4]dioxino[2,3-f]quinolin-2-yl]methyl}propan-1-amine]	40.8	2.58	0.77	
Cc1ccc2c3c(ccc2n1)OC[C@H](CNCCCN(C)c1ccccc1Cl)O3 [Example 13, N-(2-chlorophenyl)-N-methyl-N′-{[(2S)-8-methyl-2,3-dihydro[1,4]dioxino[2,3-f]quinolin-2-yl]methyl}propane-1,3-diamine]	3.5	0.57	2.49	
Cc1ccc2c3c(ccc2n1)OC[C@H](CNCCCN1CCCCc2ccccc21)O3 [Example 12, N-{[(2S)-8-methyl-2,3-dihydro[1,4]dioxino[2,3-f]quinolin-2-yl]methyl}-3-(2,3,4,5-tetrahydro-1H-1-benzazepin-1-yl)propan-1-amine]	36.2	0.79	3.06	
